From PubChem BioAssay AID602185 (Broad Institute, 2012)
Active and inactive are the calls of the source.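 Rule for the calls: active = compounds curbing yeast growth with fitted half-effect dose at most twice their top tested dose; inconclusive = flat fit at 30 to 70% inhibition, or poor fit; inactive = the rest.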

Experiments:
[1] = C. glabrata growth inhibition on glucose, dose response, glucose medium, OD600, dry powder (AID 602185); conditions: Candida glabrata growth in glucose, OD600, 48 h, hits give low values
[2] = tested on: Candida glabrata growth in glucose, OD600, 48 h; test: as above

For Oc1c(C(c2ccccc2Cl)N2CCCCC2)ccc2cccnc12 (centres undefined), the max activity, negative = growth inhibition ([1]; at 19.5 µM) was -24.3% (inactive).
Compound CCCC(=O)NC(c1cccs1)c1cc(Cl)c2cccnc2c1O (centres undefined) has an AC50 [2] of 3.27 µM.
In the case of O=C(Nc1nc(-c2ccccn2)cs1)c1ccc(Br)s1, the AC50 [2] is reported as 8.64 µM.
In the case of O=C(Nc1nnc(-c2ccc3c(c2)CCCC3)o1)c1ccc(Cl)cc1Cl, the max activity, negative = growth inhibition ([1]; at 0.16 µM) is reported as 21% (inactive).
In the case of O=C(Nc1nc(-c2ccccc2)cs1)c1ccc(Br)s1, the max activity, negative = growth inhibition ([1]; at 0.3 µM) is reported as 11.1% (inactive).
In the case of O=C(Oc1c(Cl)cc(Cl)c2cccnc12)c1ccco1, the AC50 [2] is reported as 1.14 µM.
With Oc1c(C(c2ccc(Cl)cc2)N2CCCC2)ccc2cccnc12 (centres undefined) the max activity, negative = growth inhibition ([1]; at 1.2 µM) was 12% (inactive).
In the case of C/C(=N\NC(=O)c1cc2ccccc2cc1O)c1ccccn1, the max activity, negative = growth inhibition ([1]; at 5 µM) is reported as 18.8% (inactive).
For Oc1c(CN2CCN(c3ccccc3)CC2)cc(Cl)c2cccnc12, the max activity, negative = growth inhibition ([1]; at 0.35 µM) was 12.9% (inactive).
O=C(Nc1nc(-c2ccccn2)cs1)c1ccc(Cl)s1 showed an AC50 [2] of 9.57 µM.
In the case of O=C(Nc1nc(-c2ccccn2)cs1)c1ccccc1, the max activity, negative = growth inhibition ([1]; at 19.5 µM) is reported as -14.7% (inactive).
In the case of Oc1c(CN2CCc3ccccc3C2)cc(Cl)c2cccnc12, the max activity, negative = growth inhibition ([1]; at 10 µM) is reported as 15.2% (inactive).
In the case of Cc1cc(C)n(-c2nc3ccccc3c(=O)n2OCC#N)n1, the max activity, negative = growth inhibition ([1]; at 19.5 µM) is reported as -17.9% (inactive).
In the case of CN1CCN(C(c2ccc(C(F)(F)F)cc2)c2ccc3cccnc3c2O)CC1 (centres undefined), the AC50 [2] is reported as 2.18 µM.
In the case of Cc1ccc(-c2nc3c(Cl)cc(Cl)cc3c(=O)n2O)cc1, the AC50 [2] is reported as 1.75 µM.
In the case of CCOC(=O)N1C(=O)C2(CCCCC2)N(c2ccc(C)cc2)C1=S, the max activity, negative = growth inhibition ([1]; at 0.08 µM) is reported as 13.5% (inactive).
With Cc1ccc(C(=O)Nc2nnc(-c3ccccc3)o2)cc1C the max activity, negative = growth inhibition ([1]; at 0.16 µM) was 18.7% (inactive).
With Cc1ccc(C(=O)Nc2nc(-c3ccccn3)cs2)cc1 the max activity, negative = growth inhibition ([1]; at 19.5 µM) was -34.8% (inactive).
O=C(NNC(=S)Nc1ccc(Cl)c(Cl)c1)c1ccccn1 gave an AC50 [2] of 10.1 µM.
For O=C(Nc1nc(-c2ccc3c(c2)CCCC3)cs1)c1ccccc1, the max activity, negative = growth inhibition ([1]; at 0.3 µM) was 19.6% (inactive).
For COc1ccc(-c2nnc(NC(=O)c3ccc(S(=O)(=O)N4CCCc5ccccc54)cc3)o2)cc1, the max activity, negative = growth inhibition ([1]; at 0.3 µM) was 12.6% (inactive).
Compound C=CCNC(=S)N/N=C(\C)c1ccccn1 has an AC50 [2] of 6.14 µM.
In the case of O=C(Nc1nnc(-c2ccc3c(c2)CCCC3)o1)c1ccccc1, the max activity, negative = growth inhibition ([1]; at 2.6 µM) is reported as -10.5% (inactive).
For NC(=O)c1cccc(C(=O)Nc2nc(-c3ccc4c(c3)CCCC4)cs2)c1, the max activity, negative = growth inhibition ([1]; at 2.6 µM) was 14.1% (inactive).
